From patent publication US7118895B2, “Process for producing aglycon by using diglycosidase and flavor-improved food containing the aglycon and converting agent to be used in the process” (Amano Enzyme Inc., priority 2000, dated 2006)

Test system: Crude diglycosidase
Experiment: Examination of temperature in the conversion into isoflavone aglycons by diglycosidase using soybean materials
Assay type: biochemical, Penicillium multicolor IAM7153
Design: Decomposition efficiency of glycitin family in roasted soy flour / Decomposition efficiency of daidzin family in roasted soy flour / Decomposition efficiency of genistin family in soymilk / Decomposition efficiency of daidzin family in soymilk / Decomposition efficiency of glycitin family in defatted soybean / Decomposition efficiency of daidzin family in defatted soybean: concentration or dose not given beside the values
Settings: for maximum isolation of aglycons: reaction at 55° C. for 6 hours
Description: Into 400 μL of 20 mM acetate buffer of pH 4.0 was suspended 50 mg of each of various soybean materials (roasted soy flour (manufactured by Fuji Shokuryo K.K.), soymilk (manufactured by Gitoh Shokuhin K.K.), defatted soybean (manufactured by Fuji Seiyu K.K.), concentrated soybean protein (manufactured by Fuji Seiyu K.K.)), whereby a substrate solution was prepared. Crude diglycosidase was diluted with 20 mM acetate buffer of pH 4.0 to be the glycosidase activity of 1.88 AU/mL. Fifty μL of the enzyme solution was mixed with the substrate solution and the whole was reacted at 80, 65, 55, 45, 37, or 30° C. at the total volume of 500 μL. To the reaction mixture was added 700 μL of ethanol after 0, 1, 3, and 6 hours of the reaction. After stirring and ultrasonication, the mixture was subjected to centrifugal separation at 15,000 rpm and 4° C. for 10 minutes. The supernatant was filtered through a filter and the existence of isoflavone glycosides and aglycon isoflavones contained in the reaction mixture was detected by HLPC.

[1] = 30° C., heat treatment of enzyme no, reaction time 0 h
[2] = 30° C., heat treatment of enzyme no, reaction time 1 h
[3] = 30° C., heat treatment of enzyme no, reaction time 3 h
[4] = 30° C., heat treatment of enzyme no, reaction time 6 h
[5] = 30° C., heat treatment of enzyme yes, reaction time 6 h
[6] = 45° C., heat treatment of enzyme no, reaction time 0 h
[7] = 45° C., heat treatment of enzyme no, reaction time 1 h
[8] = 45° C., heat treatment of enzyme no, reaction time 3 h
[9] = 45° C., heat treatment of enzyme no, reaction time 6 h
[10] = 45° C., heat treatment of enzyme yes, reaction time 6 h
[11] = 45 °C, heat treatment of enzyme: no, 0 h
[12] = 45 °C, heat treatment of enzyme: no, 1 h
[13] = 45 °C, heat treatment of enzyme: no, 3 h
[14] = 45 °C, heat treatment of enzyme: no, 6 h
[15] = 45 °C, heat treatment of enzyme: yes, 6 h
[16] = 55° C., heat treatment of enzyme no, reaction time 0 h
[17] = 55° C., heat treatment of enzyme no, reaction time 1 h
[18] = 55° C., heat treatment of enzyme no, reaction time 3 h
[19] = 55° C., heat treatment of enzyme no, reaction time 6 h
[20] = 55° C., heat treatment of enzyme yes, reaction time 6 h
[21] = 55 °C, heat treatment of enzyme: no, 0 h
[22] = 55 °C, heat treatment of enzyme: no, 1 h
[23] = 55 °C, heat treatment of enzyme: no, 3 h
[24] = 55 °C, heat treatment of enzyme: no, 6 h
[25] = 55 °C, heat treatment of enzyme: yes, 6 h
[26] = 65° C., heat treatment of enzyme no, reaction time 0 h
[27] = 65° C., heat treatment of enzyme no, reaction time 1 h
[28] = 65° C., heat treatment of enzyme no, reaction time 3 h
[29] = 65° C., heat treatment of enzyme no, reaction time 6 h
[30] = 65° C., heat treatment of enzyme yes, reaction time 6 h
[31] = 65 °C, heat treatment of enzyme: no, 0 h
[32] = 65 °C, heat treatment of enzyme: no, 1 h
[33] = 65 °C, heat treatment of enzyme: no, 3 h
[34] = 65 °C, heat treatment of enzyme: no, 6 h
[35] = 65 °C, heat treatment of enzyme: yes, 6 h
[36] = 80° C., heat treatment of enzyme no, reaction time 0 h
[37] = 80° C., heat treatment of enzyme no, reaction time 1 h
[38] = 80° C., heat treatment of enzyme no, reaction time 3 h
[39] = 80° C., heat treatment of enzyme no, reaction time 6 h
[40] = 80° C., heat treatment of enzyme yes, reaction time 6 h
[41] = 80 °C, heat treatment of enzyme: no, 0 h
[42] = 80 °C, heat treatment of enzyme: no, 1 h
[43] = 80 °C, heat treatment of enzyme: no, 3 h
[44] = 80 °C, heat treatment of enzyme: no, 6 h
[45] = 80 °C, heat treatment of enzyme: yes, 6 h

O=c1c(-c2ccc(O)cc2)coc2cc(O)ccc12 [daidzein]
Decomposition efficiency of daidzin family in concentrated soybean protein [1]: 3.0%
Decomposition efficiency of daidzin family in defatted soybean [1]: 14.5%
Decomposition efficiency of daidzin family in concentrated soybean protein [2]: 26.2%
Decomposition efficiency of daidzin family in defatted soybean [2]: 53.4%
Decomposition efficiency of daidzin family in concentrated soybean protein [3]: 42.7%
Decomposition efficiency of daidzin family in defatted soybean [3]: 54.8%
Decomposition efficiency of daidzin family in concentrated soybean protein [4]: 52.5%
Decomposition efficiency of daidzin family in defatted soybean [4]: 54.9%
Decomposition efficiency of daidzin family in concentrated soybean protein [5]: 3.2%
Decomposition efficiency of daidzin family in defatted soybean [5]: 54.6%
Decomposition efficiency of daidzin family in soymilk (30 °C, heat treatment of enzyme: no, 0 h): 9.1%
Decomposition efficiency of daidzin family in soymilk (30 °C, heat treatment of enzyme: no, 1 h): 41.8%
Decomposition efficiency of daidzin family in soymilk (30 °C, heat treatment of enzyme: no, 3 h): 47.2%
Decomposition efficiency of daidzin family in soymilk (30 °C, heat treatment of enzyme: no, 6 h): 53.8%
Decomposition efficiency of daidzin family in soymilk (30 °C, heat treatment of enzyme: yes, 6 h): 9.1%
Decomposition efficiency of daidzin family in roasted soy flour (35 °C, heat treatment of enzyme: no, 0 h): 3.6%
Decomposition efficiency of daidzin family in roasted soy flour (35 °C, heat treatment of enzyme: no, 1 h): 41.4%
Decomposition efficiency of daidzin family in roasted soy flour (35 °C, heat treatment of enzyme: no, 3 h): 54.7%
Decomposition efficiency of daidzin family in roasted soy flour (35 °C, heat treatment of enzyme: no, 6 h): 60.4%
Decomposition efficiency of daidzin family in roasted soy flour (35 °C, heat treatment of enzyme: yes, 6 h): 5.8%
Decomposition efficiency of daidzin family in concentrated soybean protein [6]: 3.1%
Decomposition efficiency of daidzin family in defatted soybean [6]: 16.2%
Decomposition efficiency of daidzin family in concentrated soybean protein [7]: 45.3%
Decomposition efficiency of daidzin family in defatted soybean [7]: 54.5%
Decomposition efficiency of daidzin family in concentrated soybean protein [8]: 48.8%
Decomposition efficiency of daidzin family in defatted soybean [8]: 56.3%
Decomposition efficiency of daidzin family in concentrated soybean protein [9]: 55.5%
Decomposition efficiency of daidzin family in defatted soybean [9]: 58.3%
Decomposition efficiency of daidzin family in concentrated soybean protein [10]: 5.7%
Decomposition efficiency of daidzin family in defatted soybean [10]: 55.7%
Decomposition efficiency of daidzin family in roasted soy flour [11]: 3.7%
Decomposition efficiency of daidzin family in soymilk [11]: 8.9%
Decomposition efficiency of daidzin family in roasted soy flour [12]: 53.5%
Decomposition efficiency of daidzin family in soymilk [12]: 43.0%
Decomposition efficiency of daidzin family in roasted soy flour [13]: 59.4%
Decomposition efficiency of daidzin family in soymilk [13]: 52.0%
Decomposition efficiency of daidzin family in roasted soy flour [14]: 66.2%
Decomposition efficiency of daidzin family in soymilk [14]: 62.8%
Decomposition efficiency of daidzin family in roasted soy flour [15]: 8.1%
Decomposition efficiency of daidzin family in soymilk [15]: 8.2%
Decomposition efficiency of daidzin family in concentrated soybean protein [16]: 3.0%
Decomposition efficiency of daidzin family in defatted soybean [16]: 14.5%
Decomposition efficiency of daidzin family in concentrated soybean protein [17]: 55.0%
Decomposition efficiency of daidzin family in defatted soybean [17]: 55.0%
Decomposition efficiency of daidzin family in concentrated soybean protein [18]: 59.4%
Decomposition efficiency of daidzin family in defatted soybean [18]: 57.3%
Decomposition efficiency of daidzin family in concentrated soybean protein [19]: 62.3%
Decomposition efficiency of daidzin family in defatted soybean [19]: 59.7%
Decomposition efficiency of daidzin family in concentrated soybean protein [20]: 3.2%
Decomposition efficiency of daidzin family in defatted soybean [20]: 55.9%
Decomposition efficiency of daidzin family in roasted soy flour [21]: 3.7%
Decomposition efficiency of daidzin family in soymilk [21]: 8.6%
Decomposition efficiency of daidzin family in roasted soy flour [22]: 57.2%
Decomposition efficiency of daidzin family in soymilk [22]: 49.1%
Decomposition efficiency of daidzin family in roasted soy flour [23]: 67.5%
Decomposition efficiency of daidzin family in soymilk [23]: 58.9%
Decomposition efficiency of daidzin family in roasted soy flour [24]: 73.3%
Decomposition efficiency of daidzin family in soymilk [24]: 68.9%
Decomposition efficiency of daidzin family in roasted soy flour [25]: 5.3%
Decomposition efficiency of daidzin family in soymilk [25]: 8.6%
Decomposition efficiency of daidzin family in concentrated soybean protein [26]: 3.0%
Decomposition efficiency of daidzin family in defatted soybean [26]: 16.2%
Decomposition efficiency of daidzin family in concentrated soybean protein [27]: 53.9%
Decomposition efficiency of daidzin family in defatted soybean [27]: 55.3%
Decomposition efficiency of daidzin family in concentrated soybean protein [28]: 55.4%
Decomposition efficiency of daidzin family in defatted soybean [28]: 58.4%
Decomposition efficiency of daidzin family in concentrated soybean protein [29]: 56.7%
Decomposition efficiency of daidzin family in defatted soybean [29]: 62.7%
Decomposition efficiency of daidzin family in concentrated soybean protein [30]: 3.2%
Decomposition efficiency of daidzin family in defatted soybean [30]: 32.0%
Decomposition efficiency of daidzin family in roasted soy flour [31]: 3.6%
Decomposition efficiency of daidzin family in soymilk [31]: 9.1%
Decomposition efficiency of daidzin family in roasted soy flour [32]: 56.3%
Decomposition efficiency of daidzin family in soymilk [32]: 48.3%
Decomposition efficiency of daidzin family in roasted soy flour [33]: 59.8%
Decomposition efficiency of daidzin family in soymilk [33]: 56.1%
Decomposition efficiency of daidzin family in roasted soy flour [34]: 62.2%
Decomposition efficiency of daidzin family in soymilk [34]: 64.7%
Decomposition efficiency of daidzin family in roasted soy flour [35]: 4.2%
Decomposition efficiency of daidzin family in soymilk [35]: 8.8%
Decomposition efficiency of daidzin family in concentrated soybean protein [36]: 3.1%
Decomposition efficiency of daidzin family in defatted soybean [36]: 16.2%
Decomposition efficiency of daidzin family in concentrated soybean protein [37]: 31.9%
Decomposition efficiency of daidzin family in defatted soybean [37]: 52.4%
Decomposition efficiency of daidzin family in concentrated soybean protein [38]: 32.0%
Decomposition efficiency of daidzin family in defatted soybean [38]: 52.0%
Decomposition efficiency of daidzin family in concentrated soybean protein [39]: 30.7%
Decomposition efficiency of daidzin family in defatted soybean [39]: 51.7%
Decomposition efficiency of daidzin family in concentrated soybean protein [40]: 3.2%
Decomposition efficiency of daidzin family in defatted soybean [40]: 21.7%
Decomposition efficiency of daidzin family in roasted soy flour [41]: 3.7%
Decomposition efficiency of daidzin family in soymilk [41]: 8.9%
Decomposition efficiency of daidzin family in roasted soy flour [42]: 47.7%
Decomposition efficiency of daidzin family in soymilk [42]: 40.3%
Decomposition efficiency of daidzin family in roasted soy flour [43]: 47.7%
Decomposition efficiency of daidzin family in soymilk [43]: 39.7%
Decomposition efficiency of daidzin family in roasted soy flour [44]: 40.8%
Decomposition efficiency of daidzin family in soymilk [44]: 34.1%
Decomposition efficiency of daidzin family in roasted soy flour [45]: 3.8%
Decomposition efficiency of daidzin family in soymilk [45]: 8.8%
maximum isolation of aglycons (concentrated soybean protein): about 62%
maximum isolation of aglycons (defatted soybean): about 60%
maximum isolation of aglycons (soy flour): about 73%
maximum isolation of aglycons (soymilk): about 70%
